Laboratory results published in article PMC4673899 (Analytical biochemistry, 2010).
Where two headings read alike, the source gives them in different places. Primed or numbered codes have the meaning given here. Ends that are not written are not given here. Me3 = trimethyl on the lysine side chain; Me3″ = trimethyl (on lysine)

Experiments:
JMJD2E [1] = target: T1, JMJD2E (Homo sapiens, UniProt B2RXH2); conditions: read-out: IC50 (FDH), cited from earlier work
T1 sequence (B2RXH2 1-337): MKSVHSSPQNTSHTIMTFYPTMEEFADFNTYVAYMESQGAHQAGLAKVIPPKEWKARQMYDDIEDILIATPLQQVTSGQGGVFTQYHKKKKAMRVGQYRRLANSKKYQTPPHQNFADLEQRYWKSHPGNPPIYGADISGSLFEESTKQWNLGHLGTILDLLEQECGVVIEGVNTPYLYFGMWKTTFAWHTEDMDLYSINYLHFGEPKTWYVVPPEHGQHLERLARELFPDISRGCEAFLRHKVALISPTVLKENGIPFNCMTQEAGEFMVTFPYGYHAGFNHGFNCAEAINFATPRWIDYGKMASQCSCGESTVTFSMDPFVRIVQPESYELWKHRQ

JMJD2E [2] = target: T1, JMJD2E; experiment: JMJD2E-peptide binding AlphaScreen assay
JMJD2E [3] = target: T1, JMJD2E; conditions: cited from earlier work
[4] = target: histone H3K9me3 peptide (Homo sapiens) (UniProt P68431); experiment: SPR; conditions: cited from earlier work
[5] = target: T2, N-terminally His-tagged catalytic domain of recombinant JMJD2E (residues 1-337) (UniProt B2RXH2 1-337); experiment: AlphaScreen or HTRF
T2 sequence (looked up): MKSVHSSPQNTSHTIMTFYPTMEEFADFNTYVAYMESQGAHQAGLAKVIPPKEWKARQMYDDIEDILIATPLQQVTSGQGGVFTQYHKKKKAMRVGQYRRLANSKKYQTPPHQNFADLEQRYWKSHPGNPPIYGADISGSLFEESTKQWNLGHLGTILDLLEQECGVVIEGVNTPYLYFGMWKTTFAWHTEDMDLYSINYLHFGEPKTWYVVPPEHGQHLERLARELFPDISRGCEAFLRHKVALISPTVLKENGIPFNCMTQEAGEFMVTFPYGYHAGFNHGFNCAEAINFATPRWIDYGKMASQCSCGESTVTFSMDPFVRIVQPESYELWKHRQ

Chain of JMJD2A (O75164 2-1064): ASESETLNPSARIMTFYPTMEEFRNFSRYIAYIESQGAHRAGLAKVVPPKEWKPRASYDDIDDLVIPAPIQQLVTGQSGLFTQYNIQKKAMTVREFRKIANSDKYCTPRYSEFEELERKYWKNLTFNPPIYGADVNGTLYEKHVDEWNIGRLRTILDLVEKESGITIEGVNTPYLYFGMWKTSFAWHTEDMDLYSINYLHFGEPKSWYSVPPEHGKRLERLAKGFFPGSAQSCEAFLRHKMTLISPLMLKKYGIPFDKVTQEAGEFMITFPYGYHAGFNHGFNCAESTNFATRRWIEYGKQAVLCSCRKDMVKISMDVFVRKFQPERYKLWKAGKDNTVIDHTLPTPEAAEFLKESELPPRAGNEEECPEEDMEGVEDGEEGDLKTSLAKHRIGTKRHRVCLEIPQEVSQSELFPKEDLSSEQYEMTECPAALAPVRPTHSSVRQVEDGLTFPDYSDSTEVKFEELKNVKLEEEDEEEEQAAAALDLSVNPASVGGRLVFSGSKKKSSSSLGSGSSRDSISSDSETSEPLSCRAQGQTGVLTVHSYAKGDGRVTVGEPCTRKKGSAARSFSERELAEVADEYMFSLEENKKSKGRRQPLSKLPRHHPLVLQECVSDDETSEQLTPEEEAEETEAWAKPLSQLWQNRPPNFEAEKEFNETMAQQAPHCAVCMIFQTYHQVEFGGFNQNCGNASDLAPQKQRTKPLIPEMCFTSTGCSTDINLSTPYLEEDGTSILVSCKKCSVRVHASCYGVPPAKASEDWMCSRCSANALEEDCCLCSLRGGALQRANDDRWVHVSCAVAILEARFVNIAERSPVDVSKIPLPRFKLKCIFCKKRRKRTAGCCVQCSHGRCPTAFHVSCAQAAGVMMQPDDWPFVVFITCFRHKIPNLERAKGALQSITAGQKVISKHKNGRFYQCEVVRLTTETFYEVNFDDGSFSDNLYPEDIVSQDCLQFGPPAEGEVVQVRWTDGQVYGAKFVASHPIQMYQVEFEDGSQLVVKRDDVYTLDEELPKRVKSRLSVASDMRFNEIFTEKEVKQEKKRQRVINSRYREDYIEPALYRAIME

For `O=C(O)c1cccnc1C(=O)O` [Compound 2, 2,3-PDCA], the IC50 (JMJD2E [1]) is given as > 5000 µM.

For `O=C(O)CCC(=O)C(=O)O` [Compound 2OG, 2-oxoglutarate], the “concentration at signal maximum in binding assay” value (JMJD2E [2]; JMJD2E pre-incubated with 2OG prior to biotinylated-H3(1-15)K9Me3) is listed as 10 to 30 µM and the Km (JMJD2E [3]) is listed as 14 µM.

In the case of `O=C(O)c1ccc(C(=O)O)nc1` [Compound 3, 2,5-PDCA], the IC50 (JMJD2E [1]; listed as 2,5-PDCA (3)) is given as 180 µM.

For `O=C(O)c1ccc(C(=O)O)nc1` [Compound 4, 3,6-PDCA], the IC50 (JMJD2E [1]; listed as 3,6-PDCA (4)) is given as > 1000 µM.

With “H3(6-21)K9Me3: histone H3 residues 6-21 peptide with tri-methyl lysine 9 (TARK(Me3″)STGGKAPRKQLA-NH2)” the “relative JMJD2E affinity in the binding assay” value (JMJD2E [2]; competition of unlabelled peptide with biotin-H3(1-15)K9Me3) was “higher JMJD2E affinity than H3(1-15)K9Me3”.

For JMJD2A (from UniProt O75164), the Kd [4] is given as 1 µM.

Work on ARTKQTARKSTGGKA (peptide, UniProt P68431 2-16, looked up, trimethyl-lysine at K9; C-terminal amide) [unlabelled H3(1-15)K9Me3 peptide] yielded an IC50 [5] of 1.2 µM.

TARK(Me3)STGGKAPRKQLA-NH2 (peptide, UniProt P68431 7-22, looked up) [H3(6-21)K9Me3 peptide]: binds [5].
